The values that follow come from patent US8859508B2, “Application of 5-methyl-1,3-benzenediol or derivatives thereof in the preparation of medicines and functional foods for treatment or prevention of depression” (Kunming Institute of Botany, Chinese Academy of Sciences, priority 2007, dated 2014).

Each structure is given as a SMILES string.

The test system of test [1] is Kunming mice. As to the kind of experiment: Elevated plus maze (EPM) test in mice. Particulars: positive control, 2 mg/kg. In kind it is in vivo, mouse. The protocol:
Kunming mice (Certificate Number: A4CXK(Chuan)2003-16) from the Institute of Experimental Animals, People's Hospital of Sichuan Province, were used. They were 3-4 weeks old at the beginning of the experiment and weighed 25-30 g. ORG was prepared as described in Example 1. Animals were divided into drug administration groups with different doses of ORG, a vehicle control group, and a diazepam group (Jinyao Ltd. Co., Batch No. 106k1588) as positive control.
Elevated plus maze (EPM): The EPM had two open and two closed arms of equal size (30 cm long×5 cm wide). The two closed arms were connected by a central 5 cm×5 cm area. The whole maze was elevated to a height of 35 cm. ORG was administered i.p. 24 h and 5 h before the test started. Mice were individually placed in the center of the maze facing a closed arm. Each animal was tested for 5 min in a single session. The number of entrances into open arms, the number of entrances into closed arms, the total time spent in open arms, and the total time spent in closed arms were recorded; a standard of entry was defined as all limbs entering the arm. The number of entrances into open arms and time spent in open arms were the major indexes to evaluate the anxiety level of the animals, for the more entrances or time, the less the anxiety level.
(§1) Data analysis: The results of the test are expressed as mean±SEM. One-way ANOVA was used followed by the LSD test with SPSS 11 software. The significance level was set at P<0.05.

The next test relates to serum corticosterone. As to the kind of experiment: Serum corticosterone level (radioimmunoassay), non-stressed and elevated platform stressed rats. In kind it is in vivo, rat.
Test [2] relates to Kunming mice. Put plainly: Morris water maze (MWM) in mice. In kind it is in vivo, mouse. The protocol:
Kunming mice (Certificate Number: A4CXK(Chuan)2003-16) from the Institute of Experimental Animals, People's Hospital of Sichuan Province, were used. They were 3-4 weeks old at the beginning of the experiment and weighed 25-30 g. ORG was prepared as described in Example 1. Animals were divided into drug administration groups with fluoxetine or different doses of ORG and a vehicle control group. The drug administration groups received 1.75 mg/kg or 3.5 mg/kg of ORG or 15 mg/kg of fluoxetine. Animals received a single i.p. injection of drug or vehicle 30 min either after training every day or 30 min before the retention test on day 8.
Morris water maze: The MWM was performed in a circular pool (100 cm in diameter and 36 cm in depth) with a hidden platform (10 cm×10 cm) that was approximately 1 cm below the water surface. The pool was surrounded by yellow curtains with different shaped markers hanging in each quadrant. The time spent to find the hidden platform and the trajectory of the mouse were recorded by computer. From days 1 to 7, mice were placed in the pool to find the fixed hidden platform. On day 8, the platform was removed and the time that the mouse spent in the target quadrant was counted in 1 min of free swimming.
as §1

Another test deals with Sprague-Dawley rats. As to the kind of experiment: Forced swim test (FST) in rats. In kind it is in vivo, rat. The conditions noted are these: positive control, 15 mg/kg.
Test [3] has as its system CMS model mice. Put plainly: FST in chronic unpredictable mild stress (CMS) model mice. In kind it is in vivo, mouse. The conditions noted are these: CMS mice, positive control, 15 mg/kg. The protocol: (§2) Kunming mice (Certificate Number: A4CXK(Chuan)2003-16) from the Institute of Experimental Animals, People's Hospital of Sichuan Province, were used. They were 3-4 weeks old at the beginning of experiments and weighed 25-30 g. ORG was prepared as described in Example 1. Animals were divided into experiment groups with different doses, a vehicle control group, and an imipramine group (Sigma, Batch No. 106k1588) as positive control.
(§3) CMS model: The chronic mild stresses that Kunming mice were subjected to were reversal of circadian rhythm, continuous light, cold, damp bedding, tilt cages, food and water restriction, and restraint. […] The stress period lasted for 8 weeks. In the last week, ORG was administered orally once a day for 7 consecutive days. The behavioral test was carried out 30 min after the last administration. The parameter tested was immobility time in the FST and TST in the CMS model mice. The methods of FST and TST and data analysis were as described above.

For test [4], the system named is CMS model mice. As to the kind of experiment: TST in chronic unpredictable mild stress (CMS) model mice. Particulars: CMS mice, positive control, 15 mg/kg. In kind it is in vivo, mouse. On the procedure:
as §2, §3

Test [5] relates to DD model mice. Put plainly: FST in constant darkness (DD) model mice. Particulars: DD mice, positive control, 15 mg/kg. In kind it is in vivo, mouse. The protocol:
(§4) Kunming mice (Certificate Number: A4CXK(Chuan)2003-16) from the Institute of Experimental Animals, People's Hospital of Sichuan Province, were used. They were 3-4 weeks old at the beginning of the experiments and weighed 25-30 g. ORG was prepared as described in Example 1. Animals were divided into experimental groups with different doses, vehicle control groups, and an imipramine group (Sigma, Batch No. 106k1588) as positive control.
(§5) DD model in mice: Mice were kept under 24 h continuous dark conditions. The replacement of padding, addition of food and water, and other operations were undertaken in the condition that the intensity of red light was less than 1.0 lux. The period of this condition lasted for 28 days. In the last week, ORG was administered orally once a day for 1 week. The FST and TST were carried out 30 min after the last administration. Methods and data analysis were as described above.

For test [6], the system named is DD model mice. Put plainly: TST in constant darkness (DD) model mice. Particulars: DD mice, positive control, 15 mg/kg. In kind it is in vivo, mouse. On the procedure:
as §4, §5

The test system of the next test is SD model mice. As to the kind of experiment: FST in sleep deprivation (SD) model mice. In kind it is in vivo, mouse. The conditions noted are these: SD model mice, 24 h and 5 h before FST, 7.5 mg/kg. On the procedure: Kunming mice (Certificate Number: A4CXK(Chuan)2003-16) from the Institute of Experimental Animals, People's Hospital of Sichuan Province, were used. They were 3-4 weeks old at the beginning of the experiments and weighed 25-30 g. ORG was prepared as described in Example 1. Animals were divided into experiment groups with different doses, a vehicle control group, and an imipramine group (Sigma, Batch No. 1061c1588) as positive control.
SD model: A modified method with multiple platforms in a water environment was used to establish the SD model in mice. Mice on the platforms were free to eat and drink. However, if it fell asleep, it fell into the water because of the loss of muscle tone. The fallen animal climbed onto the platform again via a tilt pole which propped up the platforms. After 72 h of sleep deprivation, ORG was administered orally 24 h and 5 h before the FST started. The immobility time of animals were recorded. Methods and data analysis were as described above.

The test system of test [7] is Kunming mice. As to the kind of experiment: Forced swim test (FST) in mice. The conditions noted are these: FST mice.
Test [8] concerns Kunming mice. Put plainly: Tail suspension test (TST) in mice. Particulars: TST mice, positive control, 15 mg/kg.
Where [9] appears, read: positive control, 15 mg/kg (Table 2).
Setting [10] is: i.p. 24 h and 5 h before test, 10 mg/kg (Table 5).

Turning to `CN1C(=O)CN=C(c2ccccc2)c2cc(Cl)ccc21` [Diazepam, diazepam, reference compound], in the test with Kunming mice [1], the “Number of entries into open arms (mean ± SEM)” value is on record as 4.80 ± 0.77 and the “Total time spent in the open arms (s) (mean ± SEM)” value turned out to be 46.90 ± 7.19 s.
Take `CNCCC(Oc1ccc(C(F)(F)F)cc1)c1ccccc1` (stereo not drawn) [Fluoxetine, reference compound]: the “Concentration of serum corticosterone (ng/ml) (mean ± SEM)” value in the test with serum corticosterone (non-stress rats, 15 mg/kg) came to 167.20 ± 31.35 ng/mL; in the test on serum corticosterone (non-stress rats, 30 mg/kg), 178.14 ± 38.77 ng/mL; in the test with serum corticosterone (stress rats, 15 mg/kg) it was 331.35 ± 46.43 ng/mL; with serum corticosterone (stress rats, 30 mg/kg), 324.58 ± 58.63 ng/mL. Besides, the “Time spent in the right quadrant (s) (mean ± SEM)” value worked out at 29.44 ± 2.14 s in the test on Kunming mice [2] (i.p. 30 min before retrieval on day 8, 15 mg/kg) and 32.61 ± 2.20 s in the test on Kunming mice [2] (i.p. daily 30 min after training, retention test day 8, 15 mg/kg).
For `CN(C)CCCN1c2ccccc2CCc2ccccc21` [Imipramine, imipramine, reference compound], the “Immobility time (s) (mean ± SEM)” value with Sprague-Dawley rats is on record as 92.72 ± 7.09 s; in the test with CMS model mice [3], 166.00 ± 13.84 s; in the test with CMS model mice [4] it was 131.22 ± 10.61 s; in the test with DD model mice [5] it was 161.22 ± 13.08 s; in the test with DD model mice [6], 131.22 ± 10.61 s; with SD model mice, 150.27 ± 13.17 s. In addition, the “Immobility time (s) (mean ± SEM)” value in the test on Kunming mice [7] (setting [9]) is recorded as 131.20 ± 3.91 s; in the test with Kunming mice [7] (positive control, 15 mg/kg (Table 4)), 96.38 ± 12.04 s; in the test on Kunming mice [7] (positive control, 15 mg/kg (Table 5)) it was 146.00 ± 6.46 s; with Kunming mice [8] it was 105.65 ± 5.71 s.
In the case of `Cc1cc(O)cc(O)c1` [OR, orcinol], the “Immobility time (s) (mean ± SEM)” value in the test on Kunming mice [7] (i.p. 24 h and 5 h before test, 10 mg/kg (Table 4)) is listed as 82.40 ± 10.64 s.
As for `CC(=O)Oc1cc(C)cc(OC(C)=O)c1` [OR-2Ac, 1,3-O-diacetylorcinol], the “Immobility time (s) (mean ± SEM)” value in the test on Kunming mice [7] (setting [10]) is reported as 170.10 ± 6.37 s.
Same read-out and setting: for `Cc1cc(O)cc(OC2OC(COC3OC(CO)C(O)C(O)C3O)C(O)C(O)C2O)c1` [ORGG, orcinol-1-O-[β-D-glucopyranosyl-(1→6)]-β-D-glucopyranoside] the value was 184.20 ± 11.29 s.
Regarding `COc1ccc(C(CN(C)C)C2(O)CCCCC2)cc1` (stereo not drawn) [Venlafaxine, venlafaxine, reference compound], the entries for the “Immobility time (s) (mean ± SEM)” value with Sprague-Dawley rats, in the test on Kunming mice [7] (setting [9]) and with Kunming mice [8] were 100.80 ± 9.84 s, 134.28 ± 3.76 s and 102.85 ± 9.34 s, respectively.
